Results published in ChEMBL document CHEMBL1240475, “Design and synthesis of novel isoxazole-based HDAC inhibitors” (Eur J Med Chem, 2010).

Assays:
[1] = biological target: T1, Histone deacetylase (Homo sapiens) (UniProt Q13547+O15379+Q9UBN7+Q92769+Q9UQL6+Q8WUI4+Q9BY41+Q96DB2+P56524+Q9UKV0+Q969S8); settings: HeLa, at 0.1 µM
Description: Inhibition of HDAC in human HeLa cells at 0.1 uM after 15 mins

[2] = biological target: T1, Histone deacetylase (Homo sapiens); settings: HeLa, at 1 µM
Description: Inhibition of HDAC in human HeLa cells at 1 uM after 15 mins

[3] = biological target: T1, Histone deacetylase (Homo sapiens); settings: HeLa, at 10 µM
Description: Inhibition of HDAC in human HeLa cells at 10 uM after 15 mins

Histone deacetylase 1 = Histone deacetylase 1 (Homo sapiens, UniProt Q13547); assay: Inhibition of HDAC1
Histone deacetylase 3 = Histone deacetylase 3 (Homo sapiens, UniProt O15379); assay: Inhibition of HDAC3
[4] = biological target: T2, Protein deacetylase HDAC6 (Homo sapiens, UniProt Q9UBN7); assay: Inhibition of HDAC6
T2 sequence (Q9UBN7 whole entry): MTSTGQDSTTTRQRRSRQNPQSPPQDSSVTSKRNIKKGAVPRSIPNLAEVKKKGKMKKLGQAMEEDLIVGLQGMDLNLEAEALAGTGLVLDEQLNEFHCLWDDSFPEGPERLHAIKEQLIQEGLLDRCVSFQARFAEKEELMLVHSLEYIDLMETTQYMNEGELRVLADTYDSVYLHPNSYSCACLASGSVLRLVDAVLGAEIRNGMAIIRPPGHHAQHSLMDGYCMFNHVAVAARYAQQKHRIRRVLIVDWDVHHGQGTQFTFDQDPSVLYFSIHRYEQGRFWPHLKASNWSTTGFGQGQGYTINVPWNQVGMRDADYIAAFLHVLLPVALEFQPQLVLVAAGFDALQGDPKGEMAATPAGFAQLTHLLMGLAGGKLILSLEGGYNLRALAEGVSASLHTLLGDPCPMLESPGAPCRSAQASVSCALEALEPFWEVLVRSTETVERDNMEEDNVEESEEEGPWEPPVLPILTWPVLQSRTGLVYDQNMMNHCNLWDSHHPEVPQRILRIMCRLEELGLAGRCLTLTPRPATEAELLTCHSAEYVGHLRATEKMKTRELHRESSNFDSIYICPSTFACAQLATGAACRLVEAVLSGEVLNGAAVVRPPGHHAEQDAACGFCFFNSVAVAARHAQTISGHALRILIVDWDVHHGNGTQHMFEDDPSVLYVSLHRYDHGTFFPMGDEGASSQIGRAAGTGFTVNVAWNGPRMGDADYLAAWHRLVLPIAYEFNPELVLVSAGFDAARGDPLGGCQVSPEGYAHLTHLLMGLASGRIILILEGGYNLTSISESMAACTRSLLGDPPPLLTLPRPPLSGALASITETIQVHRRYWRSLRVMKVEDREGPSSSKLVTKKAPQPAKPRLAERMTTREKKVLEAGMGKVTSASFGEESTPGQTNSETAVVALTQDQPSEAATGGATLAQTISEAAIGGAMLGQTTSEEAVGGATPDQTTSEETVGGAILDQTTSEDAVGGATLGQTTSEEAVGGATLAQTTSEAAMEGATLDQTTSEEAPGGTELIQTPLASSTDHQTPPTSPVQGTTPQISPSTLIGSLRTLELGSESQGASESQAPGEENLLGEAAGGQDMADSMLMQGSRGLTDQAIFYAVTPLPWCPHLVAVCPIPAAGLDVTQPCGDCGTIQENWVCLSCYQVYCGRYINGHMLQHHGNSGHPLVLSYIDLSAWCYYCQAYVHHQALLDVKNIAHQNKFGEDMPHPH

Histone deacetylase 2 = Histone deacetylase 2 (Homo sapiens, UniProt Q92769)
[5] = biological target: T3, Polyamine deacetylase HDAC10 (Homo sapiens, UniProt Q969S8); assay: Inhibition of HDAC10
T3 sequence (Q969S8 whole entry): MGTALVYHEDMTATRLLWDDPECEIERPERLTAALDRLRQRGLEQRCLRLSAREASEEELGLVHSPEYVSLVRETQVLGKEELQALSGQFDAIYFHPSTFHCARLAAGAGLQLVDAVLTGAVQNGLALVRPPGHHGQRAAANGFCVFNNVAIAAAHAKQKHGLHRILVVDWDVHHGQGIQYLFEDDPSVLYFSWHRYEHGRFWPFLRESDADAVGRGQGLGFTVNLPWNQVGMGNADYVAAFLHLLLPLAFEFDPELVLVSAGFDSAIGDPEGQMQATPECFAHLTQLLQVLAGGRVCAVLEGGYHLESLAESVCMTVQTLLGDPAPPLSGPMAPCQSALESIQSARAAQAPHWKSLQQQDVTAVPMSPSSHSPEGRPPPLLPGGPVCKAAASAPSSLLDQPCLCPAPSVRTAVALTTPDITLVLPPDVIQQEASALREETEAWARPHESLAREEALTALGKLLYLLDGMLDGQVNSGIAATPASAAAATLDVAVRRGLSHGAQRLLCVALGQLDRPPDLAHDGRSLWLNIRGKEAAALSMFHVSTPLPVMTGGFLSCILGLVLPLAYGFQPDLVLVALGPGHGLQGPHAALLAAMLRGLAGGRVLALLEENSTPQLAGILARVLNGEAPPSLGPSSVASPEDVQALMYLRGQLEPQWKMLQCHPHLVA

Chain of Histone deacetylase 3 (O15379 whole entry): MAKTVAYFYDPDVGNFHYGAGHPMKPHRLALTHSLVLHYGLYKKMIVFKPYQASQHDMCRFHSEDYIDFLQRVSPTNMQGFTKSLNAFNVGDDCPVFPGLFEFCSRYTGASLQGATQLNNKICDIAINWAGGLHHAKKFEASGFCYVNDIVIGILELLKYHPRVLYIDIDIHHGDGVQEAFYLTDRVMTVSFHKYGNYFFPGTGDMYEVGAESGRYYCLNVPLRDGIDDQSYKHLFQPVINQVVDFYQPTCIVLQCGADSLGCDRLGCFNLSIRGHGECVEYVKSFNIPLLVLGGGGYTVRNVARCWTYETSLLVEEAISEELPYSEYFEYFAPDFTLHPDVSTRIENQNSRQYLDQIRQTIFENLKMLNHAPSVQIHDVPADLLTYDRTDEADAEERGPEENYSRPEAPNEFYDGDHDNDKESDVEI
Chain of Histone deacetylase 2 (Q92769 whole entry): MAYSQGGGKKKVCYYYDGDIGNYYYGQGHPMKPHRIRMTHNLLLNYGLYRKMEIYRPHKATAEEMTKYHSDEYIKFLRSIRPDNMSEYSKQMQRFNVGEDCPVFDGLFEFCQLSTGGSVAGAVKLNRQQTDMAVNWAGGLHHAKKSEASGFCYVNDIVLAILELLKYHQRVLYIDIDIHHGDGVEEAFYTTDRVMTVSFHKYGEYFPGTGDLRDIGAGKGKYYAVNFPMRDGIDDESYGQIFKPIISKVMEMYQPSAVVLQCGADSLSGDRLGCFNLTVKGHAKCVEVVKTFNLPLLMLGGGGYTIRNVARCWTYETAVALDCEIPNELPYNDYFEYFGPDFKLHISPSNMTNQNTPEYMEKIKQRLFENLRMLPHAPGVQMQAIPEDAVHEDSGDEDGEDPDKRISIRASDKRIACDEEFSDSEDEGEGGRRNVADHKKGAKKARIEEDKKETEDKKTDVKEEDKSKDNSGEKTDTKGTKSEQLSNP
Chain of Histone deacetylase 1 (Q13547 whole entry): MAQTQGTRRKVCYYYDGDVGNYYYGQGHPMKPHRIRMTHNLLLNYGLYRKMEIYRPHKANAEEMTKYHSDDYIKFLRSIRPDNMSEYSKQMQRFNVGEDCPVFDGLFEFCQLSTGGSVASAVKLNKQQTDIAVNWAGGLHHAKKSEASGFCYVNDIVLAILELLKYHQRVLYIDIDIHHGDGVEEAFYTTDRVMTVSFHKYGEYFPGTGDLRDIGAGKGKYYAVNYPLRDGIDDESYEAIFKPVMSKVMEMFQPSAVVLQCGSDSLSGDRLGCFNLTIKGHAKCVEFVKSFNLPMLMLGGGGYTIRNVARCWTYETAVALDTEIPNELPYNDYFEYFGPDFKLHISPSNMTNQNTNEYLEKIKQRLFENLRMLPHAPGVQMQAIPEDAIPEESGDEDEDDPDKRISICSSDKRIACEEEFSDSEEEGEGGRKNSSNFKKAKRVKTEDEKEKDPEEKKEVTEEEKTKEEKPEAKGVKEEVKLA

Row | Compound | inhibition [1] | inhibition [2] | inhibition [3] | IC50 (Histone deacetylase 1) | IC50 (Histone deacetylase 3) | IC50 [4] | IC50 (Histone deacetylase 2) | IC50 [5]
1 | Nc1cc(CCCCC(=O)Nc2ccccc2)on1 | 4.5% | 0% | 0% | – | – | – | – | –
2 | O=C(CCCCc1cc(CO)no1)Nc1ccccc1 | 0% | 0% | 0% | – | – | – | – | –
3 | O=C(CCCCc1cc(C(=O)O)no1)Nc1ccccc1 | 0% | 0% | 0.5% | – | – | – | – | –
4 | Nc1ccccc1-c1cc(CCCCC(=O)Nc2ccccc2)on1 | 0% | 0% | 0.5% | – | – | – | – | –
5 | O=C(CCCc1cc(C(=O)NO)no1)Nc1ccccc1 | 4.5% | 23.8% | 78.5% | – | – | – | – | –
6 | O=C(CCCCc1cc(CS)no1)Nc1ccccc1 | 4.5% | 22% | 80% | – | – | – | – | –
7 | O=C(CCCCc1cc(C(=O)NO)no1)Nc1ccccc1 | 1.5% | 26% | 78.5% | 4.95 µM | 26.7 µM | 0.43 µM | 18.9 µM | 9.05 µM
8 | O=C(CCCCc1cc(Cc2nn[nH]n2)no1)Nc1ccccc1 | 0% | 0% | 5% | – | – | – | – | –
9 | NNC(=O)c1cc(CCCCC(=O)Nc2ccccc2)on1 | 0% | 0% | 8% | – | – | – | – | –
10 | O=C(CCCCc1cc(-c2ccccc2O)no1)Nc1ccccc1 | 0% | 0% | 0% | – | – | – | – | –
11 | O=C(CCCCc1cc(/C=N/O)no1)Nc1ccccc1 | 0% | 0.75% | 7.5% | – | – | – | – | –
12 | O=C(CCCCC1CC(C(=O)NO)=NO1)Nc1ccccc1 (centres undefined) | 4% | 16.8% | 77% | 17.7 µM | 28.1 µM | 0.76 µM | 36.2 µM | 23.9 µM
13 | O=C(CCCC1CC(C(=O)NO)=NO1)Nc1ccccc1 (centres undefined) | 3.5% | 9.75% | 56% | – | – | – | – | –
